Assay results published in patent US20110280812A1, “FLAVOR-ENHANCING AMIDE COMPOUNDS” (priority 2010, published 2011).

Tests used:
trained sensory panel [1] = test: Sensory panel evaluation of MSG-IMP mixture combined with Formulas II-IV; format: in vivo; details: 0.01% MSG and 0.005% IMP; for effect on umami flavor of the MSG-IMP mixture: summary, no concentration stated
Description: The MSG-inosine monophosphate (IMP) mixture (0.01% MSG and 0.005% IMP), an umami composition, was combined with Formulas II-IV at different concentrations and evaluated by a trained sensory panel.

trained sensory panel [2] = test: Sensory panel evaluation of MSG (0.02%) combined with Formula II; format: in vivo
Experimental: The flavor compositions of MSG (0.02%) combined with (2E,4E)-N-phenethylundeca-2,4-dien-8,10-diynamide (Formula II) at different concentrations were evaluated by a trained sensory panel using an intensity scale of 0 to 5, where 0=none, 1=minimal, 3=moderate, and 5=intense. Averaged sensory scores were reported in the following: […]

Compound	Flavor Profile: effect on umami flavor of the MSG-IMP mixture (trained sensory panel [1]; amide at 500 ppb)	effect on umami flavor of the MSG-IMP mixture (trained sensory panel [1])	effect on umami flavor of MSG (trained sensory panel [2]; summary over the concentrations tested)	Flavor Profile (trained sensory panel [2]; Formula II 0)	Flavor Intensity (trained sensory panel [2]; Formula II 0, averaged sensory score, scale 0 to 5 (0=none, 1=minimal, 3=moderate, 5=intense))
C#CC#CCC/C=C/C=C/C(=O)NCCc1ccccc1 [Formula II, (2E,4E)-N-phenethylundeca-2,4-dien-8,10-diynamide]	strongest enhancement	enhanced the umami flavor of the MSG-IMP mixture	enhanced the umami flavor of MSG		
C#CC#CCC/C=C/C=C/C(=O)NCC(C)CC (stereo not drawn) [Formula IV, (2E,4E)-N-(2-methylbutyl)undeca-2,4-dien-8,10-diynamide]		enhanced the umami flavor of the MSG-IMP mixture			
N[C@@H](CCC(=O)O)C(=O)[O-].[Na+] [MSG, monosodium glutamate]				umami	1.0
